According to patent US20080009418A1, “Selective Inhibitors” (Alchemia LTD., priority 2004, published 2008):

What was measured:
Conditions in all cases: compound at 10 μM
[1] = target: T1, Human melanin-concentrating hormone (MCH1) (Homo sapiens, UniProt Q99705); assay: Radioligand binding, human melanin-concentrating hormone MCH1 membranes, FlashPlate, [125I]-S36057
T1 construct: purchased Perkin Elmer Biosignal
Method in brief: (§1)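 Cloned human receptor membranes were coated onto FlashPlate wells and incubated with radioligand and compound (added from a 0.5 mM DMSO daughter plate) for 1 hour at room temperature in the dark. Scintillation counting gave percent inhibition, with DMSO defining total and reference ligand defining non-specific binding.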

Human neurokinin (NK1) = target: T2, Human neurokinin (NK1) (Homo sapiens, UniProt P25103); assay: Radioligand binding, human neurokinin NK1 membranes, filtration, [125I]-Substance P
T2 construct: purchased Perkin Elmer Biosignal
Method in brief: (§2)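 Percent inhibition of radioligand binding measured on recombinant human membranes: NK1 with [125I]-Substance P, KOP with [3H]-Diprenorphine. Incubation 1 h at room temperature, then harvest onto 0.3% PEI-soaked filters, cold Tris-HCl pH 7.4 washes and scintillation counting; non-specific binding from reference ligand wells.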

Human Melanocortin (MC4) = target: T3, Human Melanocortin (MC4) (Homo sapiens, UniProt P32245); assay: Radioligand binding, human melanocortin MC4 membranes, FlashPlate, [125I]-NDP-αMSH
T3 construct: purchased Perkin Elmer Biosignal
Method in brief: as §1

Human μ-opioid (MOP) = target: T4, Human μ-opioid (MOP) (Homo sapiens, UniProt P35372); assay: Radioligand binding, human μ-opioid (MOP) membranes, FlashPlate, [3H]-Naloxone
T4 construct: purchased Perkin Elmer Biosignal
Method in brief: as §1

Mouse urotensin (mUR2) = target: T5, Mouse urotensin (mUR2) (Mus musculus, UniProt Q8VIH9); assay: Radioligand binding, mouse urotensin mUR2 membranes, FlashPlate, [125I]-Urotensin II
T5 construct: purchased Perkin Elmer Biosignal
T5 sequence (Q8VIH9 1-385): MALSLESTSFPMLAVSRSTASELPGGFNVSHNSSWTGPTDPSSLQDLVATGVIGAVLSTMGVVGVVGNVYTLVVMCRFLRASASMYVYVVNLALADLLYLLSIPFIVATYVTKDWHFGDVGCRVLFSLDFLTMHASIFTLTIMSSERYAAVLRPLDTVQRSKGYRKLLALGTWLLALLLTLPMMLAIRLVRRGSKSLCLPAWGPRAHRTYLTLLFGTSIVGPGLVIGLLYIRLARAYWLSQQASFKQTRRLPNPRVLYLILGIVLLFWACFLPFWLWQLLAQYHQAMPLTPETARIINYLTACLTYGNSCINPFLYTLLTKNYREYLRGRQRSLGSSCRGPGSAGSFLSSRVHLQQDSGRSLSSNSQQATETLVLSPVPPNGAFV
Method in brief: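 Cloned mouse urotensin (mUR2) receptor membranes from Perkin Elmer Biosignal were immobilized in FlashPlate microplates using a proprietary coating. Each well got 19.5 μl buffer, then 0.5 μl of DMSO, reference ligand, or compound. Adding 5 μl of [125I]-Urotensin II, diluted to 5× final concentration in binding buffer, started binding. Plates were sealed with TopSeal-A and incubated 1 hour at room temperature in the dark. Wells were counted for 30 seconds each on a TopCount after a 60-second delay, and percentage inhibition was calculated.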

Human δ-opioid (DOP) = target: T6, Human δ-opioid (DOP) (Homo sapiens, UniProt P41143); assay: Radioligand binding, human δ-opioid (DOP) membranes, FlashPlate, [3H]-Bremazocine
T6 construct: purchased Perkin Elmer Biosignal
Method in brief: as §1

[2] = target: T7, Human neuropeptide Y (NPY-Y1) (Homo sapiens, UniProt P25929); assay: Radioligand binding, human neuropeptide Y NPY-Y1 membranes, FlashPlate, [125I]-PYY
T7 construct: purchased Perkin Elmer Biosignal
T7 sequence (P25929 1-384): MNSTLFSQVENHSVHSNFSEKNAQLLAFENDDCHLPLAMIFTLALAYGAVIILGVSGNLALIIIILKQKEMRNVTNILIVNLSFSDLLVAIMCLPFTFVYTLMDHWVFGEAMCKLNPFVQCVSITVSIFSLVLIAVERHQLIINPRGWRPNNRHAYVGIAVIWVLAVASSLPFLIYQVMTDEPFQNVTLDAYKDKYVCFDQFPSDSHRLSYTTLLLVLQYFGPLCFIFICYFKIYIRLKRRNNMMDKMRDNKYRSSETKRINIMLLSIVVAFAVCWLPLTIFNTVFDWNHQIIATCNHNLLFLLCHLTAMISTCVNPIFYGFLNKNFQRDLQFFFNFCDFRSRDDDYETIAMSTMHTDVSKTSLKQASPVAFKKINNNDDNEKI
Method in brief: as §1

Human opioid (ORL1) = target: T8, Human opioid (ORL1) (Homo sapiens, UniProt P41146); assay: Radioligand binding, human opioid ORL1 membranes, FlashPlate, [125I]-Nociceptin
T8 construct: purchased Perkin Elmer Biosignal
Method in brief: as §1

Human Melanocortin (MC3) = target: T9, Human Melanocortin (MC3) (Homo sapiens, UniProt P41968); assay: Radioligand binding, human melanocortin MC3 membranes, FlashPlate, [125I]-NDP-αMSH
T9 construct: purchased Perkin Elmer Biosignal
Method in brief: as §1

Human κ-Opioid (KOP) = target: T10, Human κ-Opioid (KOP) (Homo sapiens, UniProt P41145); assay: Radioligand binding, human κ-opioid (KOP) membranes, filtration, [3H]-Diprenorphine
T10 construct: purchased Perkin Elmer Biosignal
Method in brief: as §2

Human melanocortin (MC5) = target: T11, Human melanocortin (MC5) (Homo sapiens, UniProt P33032); assay: Radioligand binding, human melanocortin MC5 membranes, FlashPlate, [125I]-NDP-αMSH
T11 construct: purchased Perkin Elmer Biosignal
Method in brief: as §1

T10 sequence (P41145 whole entry): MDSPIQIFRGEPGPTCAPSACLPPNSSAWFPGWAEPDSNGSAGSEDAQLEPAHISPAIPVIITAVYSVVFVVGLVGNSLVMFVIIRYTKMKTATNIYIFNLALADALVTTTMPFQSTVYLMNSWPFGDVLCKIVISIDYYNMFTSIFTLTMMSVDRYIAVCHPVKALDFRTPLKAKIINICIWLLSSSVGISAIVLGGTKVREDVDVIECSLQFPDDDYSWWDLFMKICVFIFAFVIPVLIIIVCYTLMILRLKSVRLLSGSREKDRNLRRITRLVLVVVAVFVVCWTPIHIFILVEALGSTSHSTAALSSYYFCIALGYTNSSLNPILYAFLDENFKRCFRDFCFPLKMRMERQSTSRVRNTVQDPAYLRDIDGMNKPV
T1 sequence (Q99705 whole entry): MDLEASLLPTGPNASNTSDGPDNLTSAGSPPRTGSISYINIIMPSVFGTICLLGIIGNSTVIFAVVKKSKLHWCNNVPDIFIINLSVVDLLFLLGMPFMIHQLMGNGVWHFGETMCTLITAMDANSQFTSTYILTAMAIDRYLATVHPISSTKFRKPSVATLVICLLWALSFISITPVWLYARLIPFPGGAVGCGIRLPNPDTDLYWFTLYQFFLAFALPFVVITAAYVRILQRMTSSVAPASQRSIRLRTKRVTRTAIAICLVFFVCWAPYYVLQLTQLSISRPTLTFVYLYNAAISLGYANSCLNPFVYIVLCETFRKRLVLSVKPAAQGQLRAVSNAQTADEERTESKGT
T2 sequence (P25103 whole entry): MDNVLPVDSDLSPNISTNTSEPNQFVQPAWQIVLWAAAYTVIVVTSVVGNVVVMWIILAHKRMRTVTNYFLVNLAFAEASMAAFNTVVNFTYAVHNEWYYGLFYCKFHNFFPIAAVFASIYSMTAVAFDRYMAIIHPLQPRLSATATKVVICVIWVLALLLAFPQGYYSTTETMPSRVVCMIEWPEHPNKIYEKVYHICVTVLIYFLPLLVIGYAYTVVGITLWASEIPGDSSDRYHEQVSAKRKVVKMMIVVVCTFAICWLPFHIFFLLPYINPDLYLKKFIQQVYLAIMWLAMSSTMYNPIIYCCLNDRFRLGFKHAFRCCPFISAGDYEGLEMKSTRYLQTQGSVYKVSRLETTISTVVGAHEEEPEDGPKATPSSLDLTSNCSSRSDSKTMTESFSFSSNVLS
T9 sequence (P41968 whole entry): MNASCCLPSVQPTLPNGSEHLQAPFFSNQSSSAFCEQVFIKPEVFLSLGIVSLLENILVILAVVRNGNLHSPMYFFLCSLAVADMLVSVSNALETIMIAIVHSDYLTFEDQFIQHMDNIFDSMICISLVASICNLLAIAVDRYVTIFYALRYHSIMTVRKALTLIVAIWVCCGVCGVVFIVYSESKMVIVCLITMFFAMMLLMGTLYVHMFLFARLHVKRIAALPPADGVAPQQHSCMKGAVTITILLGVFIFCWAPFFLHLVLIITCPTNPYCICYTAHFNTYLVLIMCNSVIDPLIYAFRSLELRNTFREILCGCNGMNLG
T4 sequence (P35372 whole entry): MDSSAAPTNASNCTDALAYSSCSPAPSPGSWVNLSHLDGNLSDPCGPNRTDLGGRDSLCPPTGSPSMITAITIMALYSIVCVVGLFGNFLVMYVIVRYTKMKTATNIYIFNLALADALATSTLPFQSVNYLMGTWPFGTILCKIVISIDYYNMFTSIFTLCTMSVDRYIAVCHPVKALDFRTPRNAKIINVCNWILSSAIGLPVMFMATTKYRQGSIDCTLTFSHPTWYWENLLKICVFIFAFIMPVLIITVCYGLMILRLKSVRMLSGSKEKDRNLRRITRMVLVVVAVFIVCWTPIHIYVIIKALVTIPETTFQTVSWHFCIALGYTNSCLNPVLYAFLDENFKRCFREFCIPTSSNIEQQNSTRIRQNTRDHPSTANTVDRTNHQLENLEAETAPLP
T6 sequence (P41143 whole entry): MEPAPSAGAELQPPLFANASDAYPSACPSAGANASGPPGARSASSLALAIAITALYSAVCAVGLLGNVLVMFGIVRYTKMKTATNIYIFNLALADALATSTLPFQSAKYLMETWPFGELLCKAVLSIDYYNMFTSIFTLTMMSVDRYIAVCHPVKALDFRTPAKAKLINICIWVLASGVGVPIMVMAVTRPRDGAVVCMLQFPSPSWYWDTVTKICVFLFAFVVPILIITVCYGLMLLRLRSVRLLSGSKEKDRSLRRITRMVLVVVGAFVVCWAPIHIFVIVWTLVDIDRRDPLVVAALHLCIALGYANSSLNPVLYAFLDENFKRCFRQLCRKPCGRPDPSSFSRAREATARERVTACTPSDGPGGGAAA
T3 sequence (P32245 whole entry): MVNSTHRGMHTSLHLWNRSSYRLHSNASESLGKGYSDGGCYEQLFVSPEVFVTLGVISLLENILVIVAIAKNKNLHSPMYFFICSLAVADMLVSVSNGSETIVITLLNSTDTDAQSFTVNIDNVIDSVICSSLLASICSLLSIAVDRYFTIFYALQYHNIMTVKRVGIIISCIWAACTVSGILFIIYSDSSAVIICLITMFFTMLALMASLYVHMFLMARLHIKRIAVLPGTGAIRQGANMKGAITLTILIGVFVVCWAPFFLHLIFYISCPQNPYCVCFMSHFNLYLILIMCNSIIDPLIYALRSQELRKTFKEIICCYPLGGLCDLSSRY
T8 sequence (P41146 whole entry): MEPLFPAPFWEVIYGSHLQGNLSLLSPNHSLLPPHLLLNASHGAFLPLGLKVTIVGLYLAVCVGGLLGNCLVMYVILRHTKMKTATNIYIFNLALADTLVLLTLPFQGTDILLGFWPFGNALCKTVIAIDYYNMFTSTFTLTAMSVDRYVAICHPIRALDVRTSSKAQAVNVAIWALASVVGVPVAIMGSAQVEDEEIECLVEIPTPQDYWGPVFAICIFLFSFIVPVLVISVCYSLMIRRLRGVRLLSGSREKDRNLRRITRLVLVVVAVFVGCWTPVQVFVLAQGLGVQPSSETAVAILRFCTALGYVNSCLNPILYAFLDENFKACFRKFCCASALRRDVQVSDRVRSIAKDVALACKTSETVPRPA
T11 sequence (P33032 whole entry): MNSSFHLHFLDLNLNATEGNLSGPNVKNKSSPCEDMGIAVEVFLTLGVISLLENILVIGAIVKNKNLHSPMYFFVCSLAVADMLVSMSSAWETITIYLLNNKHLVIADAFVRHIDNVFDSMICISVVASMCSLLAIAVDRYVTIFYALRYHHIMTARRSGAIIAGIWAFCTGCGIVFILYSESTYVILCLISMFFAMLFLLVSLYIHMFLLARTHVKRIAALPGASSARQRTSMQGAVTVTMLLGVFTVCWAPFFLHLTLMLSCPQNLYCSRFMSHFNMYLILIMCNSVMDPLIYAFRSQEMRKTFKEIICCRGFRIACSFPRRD

Structure (SMILES): COCC1OC(OCc2ccc(Cl)cc2)C(NC(=O)CCNC(=N)N)C(OCc2ccc(Cl)cc2)C1O (stereo not shown) [compound 202]
- A6: inhibition of radioligand binding ([1]; [125I]-S36057, FlashPlate): + (“+” indicates greater than 50% inhibition at 10 μM)
- A8: inhibition of radioligand binding (Human neurokinin (NK1); [125I]-Substance P, filtration): + (“+” indicates greater than 50% inhibition at 10 μM)
- A4: inhibition of radioligand binding (Human Melanocortin (MC4); [125I]-NDP-αMSH, FlashPlate): + (“+” indicates greater than 50% inhibition at 10 μM)
- A7: inhibition of radioligand binding (Human μ-opioid (MOP); [3H]-Naloxone, FlashPlate): − (“−” indicates less than 50% inhibition at 10 μM)
- A11: inhibition of radioligand binding (Mouse urotensin (mUR2); [125I]-Urotensin II, FlashPlate): − (“−” indicates less than 50% inhibition at 10 μM)
- A1: inhibition of radioligand binding (Human δ-opioid (DOP); [3H]-Bremazocine, FlashPlate): − (“−” indicates less than 50% inhibition at 10 μM)
- A9: inhibition of radioligand binding ([2]; [125I]-PYY, FlashPlate): − (“−” indicates less than 50% inhibition at 10 μM)
- A10: inhibition of radioligand binding (Human opioid (ORL1); [125I]-Nociceptin, FlashPlate): − (“−” indicates less than 50% inhibition at 10 μM)
- A3: inhibition of radioligand binding (Human Melanocortin (MC3); [125I]-NDP-αMSH, FlashPlate): + (“+” indicates greater than 50% inhibition at 10 μM)
- A2: inhibition of radioligand binding (Human κ-Opioid (KOP); [3H]-Diprenorphine, filtration): − (“−” indicates less than 50% inhibition at 10 μM)
- A5: inhibition of radioligand binding (Human melanocortin (MC5); [125I]-NDP-αMSH, FlashPlate): + (“+” indicates greater than 50% inhibition at 10 μM)

Structure (SMILES): CSC1OC(COCc2ccccc2)C(O)C(OCc2ccc3ccccc3c2)C1NC(=O)CN (stereo not shown) [compound 301]
- A6: inhibition of radioligand binding, human melanin-concentrating hormone (MCH1) ([1]; [125I]-S36057): − (“−” indicates less than 50% inhibition at 10 μM)
- A8: inhibition of radioligand binding, human neurokinin (NK1) (Human neurokinin (NK1); [125I]-Substance P): + (“+” indicates greater than 50% inhibition at 10 μM)
- A4: inhibition of radioligand binding, human melanocortin (MC4) (Human Melanocortin (MC4); [125I]-NDP-αMSH): − (“−” indicates less than 50% inhibition at 10 μM)
- A7: inhibition of radioligand binding, human μ-opioid (MOP) (Human μ-opioid (MOP); [3H]-Naloxone): − (“−” indicates less than 50% inhibition at 10 μM)
- A11: inhibition of radioligand binding, mouse urotensin (mUR2) (Mouse urotensin (mUR2); [125I]-Urotensin II): − (“−” indicates less than 50% inhibition at 10 μM)
- A1: inhibition of radioligand binding, human δ-opioid (DOP) (Human δ-opioid (DOP); [3H]-Bremazocine): − (“−” indicates less than 50% inhibition at 10 μM)
- A9: inhibition of radioligand binding, human neuropeptide Y (NPY-Y1) ([2]; [125I]-PYY): − (“−” indicates less than 50% inhibition at 10 μM)
- A10: inhibition of radioligand binding, human opioid (ORL1) (Human opioid (ORL1); [125I]-Nociceptin): − (“−” indicates less than 50% inhibition at 10 μM)
- A3: inhibition of radioligand binding, human melanocortin (MC3) (Human Melanocortin (MC3); [125I]-NDP-αMSH): − (“−” indicates less than 50% inhibition at 10 μM)
- A2: inhibition of radioligand binding, human κ-opioid (KOP) (Human κ-Opioid (KOP); [3H]-Diprenorphine): − (“−” indicates less than 50% inhibition at 10 μM)
- A5: inhibition of radioligand binding, human melanocortin (MC5) (Human melanocortin (MC5); [125I]-NDP-αMSH): − (“−” indicates less than 50% inhibition at 10 μM)

Structure (SMILES): CO[C@H]1[C@H](O)[C@@H](COCc2ccc(Cl)cc2)OC(OCc2ccc3ccccc3c2)[C@@H]1NC(=O)CNC(=N)N (stereo partly shown) [compound 78]
- A6 radioligand binding inhibition ([1]; human MCH1 membranes): − (“−” indicates less than 50% inhibition at 10 μM)
- A8 radioligand binding inhibition (Human neurokinin (NK1); human neurokinin NK1 membranes): + (“+” indicates greater than 50% inhibition at 10 μM)
- A4 radioligand binding inhibition (Human Melanocortin (MC4); human melanocortin MC4 membranes): − (“−” indicates less than 50% inhibition at 10 μM)
- A7 radioligand binding inhibition (Human μ-opioid (MOP); human μ-opioid (MOP) membranes): − (“−” indicates less than 50% inhibition at 10 μM)
- A11 radioligand binding inhibition (Mouse urotensin (mUR2); mouse urotensin mUR2 membranes): − (“−” indicates less than 50% inhibition at 10 μM)
- A1 radioligand binding inhibition (Human δ-opioid (DOP); human δ-opioid (DOP) membranes): − (“−” indicates less than 50% inhibition at 10 μM)
- A9 radioligand binding inhibition ([2]; human NPY-Y1 membranes): − (“−” indicates less than 50% inhibition at 10 μM)
- A10 radioligand binding inhibition (Human opioid (ORL1); human ORL1 membranes): − (“−” indicates less than 50% inhibition at 10 μM)
- A3 radioligand binding inhibition (Human Melanocortin (MC3); human melanocortin MC3 membranes): − (“−” indicates less than 50% inhibition at 10 μM)
- A2 radioligand binding inhibition (Human κ-Opioid (KOP); human κ-opioid (KOP) membranes): − (“−” indicates less than 50% inhibition at 10 μM)
- A5 radioligand binding inhibition (Human melanocortin (MC5); human melanocortin MC5 membranes): + (“+” indicates greater than 50% inhibition at 10 μM)

Structure (SMILES): CO[C@H]1[C@H](O)[C@@H](COCc2ccc(Cl)cc2)OC(OCc2cccc(O)c2)[C@@H]1NC(=O)CCCN (stereo partly shown) [compound 169]
- A6 radioligand binding, percentage inhibition ([1]; [125I]-S36057): − (“−” indicates less than 50% inhibition at 10 μM)
- A8 radioligand binding, percentage inhibition (Human neurokinin (NK1); [125I]-Substance P): + (“+” indicates greater than 50% inhibition at 10 μM)
- A4 radioligand binding, percentage inhibition (Human Melanocortin (MC4); [125I]-NDP-αMSH): − (“−” indicates less than 50% inhibition at 10 μM)
- A7 radioligand binding, percentage inhibition (Human μ-opioid (MOP); [3H]-Naloxone): − (“−” indicates less than 50% inhibition at 10 μM)
- A11 radioligand binding, percentage inhibition (Mouse urotensin (mUR2); [125I]-Urotensin II): − (“−” indicates less than 50% inhibition at 10 μM)
- A1 radioligand binding, percentage inhibition (Human δ-opioid (DOP); [3H]-Bremazocine): − (“−” indicates less than 50% inhibition at 10 μM)
- A9 radioligand binding, percentage inhibition ([2]; [125I]-PYY): − (“−” indicates less than 50% inhibition at 10 μM)
- A10 radioligand binding, percentage inhibition (Human opioid (ORL1); [125I]-Nociceptin): − (“−” indicates less than 50% inhibition at 10 μM)
- A3 radioligand binding, percentage inhibition (Human Melanocortin (MC3); [125I]-NDP-αMSH): − (“−” indicates less than 50% inhibition at 10 μM)
- A2 radioligand binding, percentage inhibition (Human κ-Opioid (KOP); [3H]-Diprenorphine): − (“−” indicates less than 50% inhibition at 10 μM)
- A5 radioligand binding, percentage inhibition (Human melanocortin (MC5); [125I]-NDP-αMSH): − (“−” indicates less than 50% inhibition at 10 μM)

Structure (SMILES): N=C(N)NCC(=O)NC1C(OCc2ccc(Cl)cc2)OC(COCc2ccccc2)C(O)C1OCc1ccc2ccccc2c1 (stereo not shown) [compound 421]
- A6: inhibition of radioligand binding ([1]; [125I]-S36057, human MCH1 membranes): + (“+” indicates greater than 50% inhibition at 10 μM)
- A8: inhibition of radioligand binding (Human neurokinin (NK1); [125I]-Substance P, human NK1 membranes): + (“+” indicates greater than 50% inhibition at 10 μM)
- A4: inhibition of radioligand binding (Human Melanocortin (MC4); [125I]-NDP-αMSH, human MC4 membranes): + (“+” indicates greater than 50% inhibition at 10 μM)
- A7: inhibition of radioligand binding (Human μ-opioid (MOP); [3H]-Naloxone, human MOP membranes): − (“−” indicates less than 50% inhibition at 10 μM)
- A11: inhibition of radioligand binding (Mouse urotensin (mUR2); [125I]-Urotensin II, mouse mUR2 membranes): − (“−” indicates less than 50% inhibition at 10 μM)
- A1: inhibition of radioligand binding (Human δ-opioid (DOP); [3H]-Bremazocine, human DOP membranes): − (“−” indicates less than 50% inhibition at 10 μM)
- A9: inhibition of radioligand binding ([2]; [125I]-PYY, human NPY-Y1 membranes): − (“−” indicates less than 50% inhibition at 10 μM)
- A10: inhibition of radioligand binding (Human opioid (ORL1); [125I]-Nociceptin, human ORL1 membranes): + (“+” indicates greater than 50% inhibition at 10 μM)
- A3: inhibition of radioligand binding (Human Melanocortin (MC3); [125I]-NDP-αMSH, human MC3 membranes): + (“+” indicates greater than 50% inhibition at 10 μM)
- A2: inhibition of radioligand binding (Human κ-Opioid (KOP); [3H]-Diprenorphine, human KOP membranes): − (“−” indicates less than 50% inhibition at 10 μM)
- A5: inhibition of radioligand binding (Human melanocortin (MC5); [125I]-NDP-αMSH, human MC5 membranes): + (“+” indicates greater than 50% inhibition at 10 μM)
